According to publication PMC8807399, “Synthesis, Characterization, and in vivo Evaluation of a Novel Potent Autotaxin-Inhibitor” (Frontiers in Pharmacology, 2022):
Values after ≈ are worked out from the molar mass of the structure shown.

Columns and labels:
Glucocorticoid receptor = biological target: T1, Glucocorticoid receptor (Homo sapiens, UniProt P04150); test: Off-target screen Glucocorticoid receptor; format: binding; conditions: 10 µM; single point, duplicates
T1 construct: purchased Eurofins CEREP SA

ACE = biological target: T2, ACE (Homo sapiens, UniProt P12821); test: Off-target screen ACE; format: biochemical; conditions: 10 µM; single point, duplicates
T2 construct: purchased Eurofins CEREP SA

MAO-A = biological target: T3, MAO-A (Homo sapiens, UniProt P21397); test: Off-target screen MAO-A; format: biochemical; conditions: 10 µM; single point, duplicates
T3 construct: purchased Eurofins CEREP SA

PCP receptor = test: Off-target screen PCP receptor; conditions: 10 µM; single point, duplicates
HT-solubility assay = format: physicochemical; conditions: aqueous buffer, thermodynamic from solid; phosphate buffer pH 6.5
Procedure: This assay was performed on a TECAN station starting from 10 mM DMSO stock solutions of the test compounds. Two aliquots of the test compound were dried and dissolved in phosphate buffer at pH 6.5. Sonication supports optimal re-solubilization. The solutions were then filtered and diluted (3 different dilution levels for each compound) followed by quantification of the dissolved material with Rapid-Fire MS. Quantification was performed for each test compound with a 6-point calibration curve prepared with the same DMSO starting solution.

Somatostatin receptor 4 = biological target: T4, Somatostatin receptor 4 (Homo sapiens, UniProt P31391); test: Off-target screen Somatostatin receptor 4; format: binding; conditions: 10 µM; single point, duplicates
T4 construct: purchased Eurofins CEREP SA

S1P3 = biological target: T5, S1P3 (Homo sapiens, UniProt Q99500); test: Off-target screen S1P3, antagonist mode; format: cell-based; conditions: 10 µM, single point, duplicates
T5 construct: purchased Eurofins CEREP SA

HDAC4 = biological target: T6, HDAC4 (Homo sapiens, UniProt P56524); test: Off-target screen HDAC4; format: biochemical; conditions: 10 µM; single point, duplicates
T6 construct: purchased Eurofins CEREP SA

ZAP70 = biological target: T7, ZAP70 (Homo sapiens, UniProt P43403); test: Off-target screen ZAP70; format: biochemical; conditions: 10 µM; single point, duplicates
T7 construct: purchased Eurofins CEREP SA

ADAM 17 = biological target: T8, ADAM 17 (Homo sapiens, UniProt P78536); test: Off-target screen ADAM 17; format: biochemical; conditions: 10 µM; single point, duplicates
T8 construct: purchased Eurofins CEREP SA
T8 sequence (P78536 215-824): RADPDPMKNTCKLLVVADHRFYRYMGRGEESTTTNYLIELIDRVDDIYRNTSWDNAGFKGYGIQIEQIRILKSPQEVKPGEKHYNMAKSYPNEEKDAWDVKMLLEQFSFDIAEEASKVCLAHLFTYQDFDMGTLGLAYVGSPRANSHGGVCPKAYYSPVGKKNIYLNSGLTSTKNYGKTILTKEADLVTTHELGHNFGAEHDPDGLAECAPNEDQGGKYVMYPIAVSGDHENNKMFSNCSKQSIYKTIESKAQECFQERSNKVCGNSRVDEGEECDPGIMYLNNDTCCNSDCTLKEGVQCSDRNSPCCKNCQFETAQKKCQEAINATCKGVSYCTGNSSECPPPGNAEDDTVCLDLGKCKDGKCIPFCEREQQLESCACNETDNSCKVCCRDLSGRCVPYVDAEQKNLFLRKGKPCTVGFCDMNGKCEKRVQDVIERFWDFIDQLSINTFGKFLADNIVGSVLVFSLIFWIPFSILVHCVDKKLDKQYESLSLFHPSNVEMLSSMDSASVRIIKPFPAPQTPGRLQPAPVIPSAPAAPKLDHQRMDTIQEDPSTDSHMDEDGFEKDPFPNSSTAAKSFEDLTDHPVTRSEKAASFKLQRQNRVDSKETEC

Sodium channel (site 2) = test: Off-target screen Sodium channel (site 2); conditions: 10 µM; single point, duplicates
LPA3 receptor = biological target: T9, LPA3 receptor (Homo sapiens, UniProt Q9UBY5); test: Off-target screen LPA3 receptor, antagonist mode; format: cell-based; conditions: 10 µM, single point, duplicates
T9 construct: purchased Eurofins CEREP SA
T9 sequence (Q9UBY5 whole entry): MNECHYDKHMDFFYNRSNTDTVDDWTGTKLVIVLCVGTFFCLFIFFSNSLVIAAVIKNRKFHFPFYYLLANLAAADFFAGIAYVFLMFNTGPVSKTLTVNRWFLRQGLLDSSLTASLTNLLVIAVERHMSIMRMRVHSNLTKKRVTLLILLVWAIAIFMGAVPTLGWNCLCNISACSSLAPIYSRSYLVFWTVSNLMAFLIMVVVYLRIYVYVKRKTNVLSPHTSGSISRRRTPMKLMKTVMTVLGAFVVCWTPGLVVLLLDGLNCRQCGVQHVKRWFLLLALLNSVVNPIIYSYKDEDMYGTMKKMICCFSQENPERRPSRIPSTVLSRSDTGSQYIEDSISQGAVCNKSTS

Cyclooxygenase 2 = biological target: T10, Cyclooxygenase 2 (Homo sapiens, UniProt P35354); test: Off-target screen Cyclooxygenase 2; format: biochemical; conditions: 10 µM; single point, duplicates
T10 construct: purchased Eurofins CEREP SA
T10 sequence (P35354 18-604): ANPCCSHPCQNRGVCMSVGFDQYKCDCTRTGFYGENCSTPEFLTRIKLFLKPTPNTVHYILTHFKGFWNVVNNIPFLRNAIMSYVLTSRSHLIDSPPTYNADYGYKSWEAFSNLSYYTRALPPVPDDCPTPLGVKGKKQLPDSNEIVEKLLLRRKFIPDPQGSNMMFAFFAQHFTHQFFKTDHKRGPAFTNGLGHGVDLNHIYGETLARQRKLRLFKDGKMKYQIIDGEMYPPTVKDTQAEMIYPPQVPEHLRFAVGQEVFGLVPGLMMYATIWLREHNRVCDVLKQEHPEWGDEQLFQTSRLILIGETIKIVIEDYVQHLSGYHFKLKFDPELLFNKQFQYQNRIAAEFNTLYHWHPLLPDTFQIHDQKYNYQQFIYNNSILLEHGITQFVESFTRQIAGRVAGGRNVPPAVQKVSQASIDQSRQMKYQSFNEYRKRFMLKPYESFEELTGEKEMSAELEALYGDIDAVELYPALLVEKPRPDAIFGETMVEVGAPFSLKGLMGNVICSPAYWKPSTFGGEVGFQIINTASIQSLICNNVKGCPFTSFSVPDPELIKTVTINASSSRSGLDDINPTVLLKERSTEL

S1P2 [1] = biological target: T11, S1P2 (Homo sapiens, UniProt O95136); test: Off-target screen S1P2, antagonist mode; format: cell-based; conditions: 10 µM, single point, duplicates
T11 construct: purchased Eurofins CEREP SA
T11 sequence (O95136 whole entry): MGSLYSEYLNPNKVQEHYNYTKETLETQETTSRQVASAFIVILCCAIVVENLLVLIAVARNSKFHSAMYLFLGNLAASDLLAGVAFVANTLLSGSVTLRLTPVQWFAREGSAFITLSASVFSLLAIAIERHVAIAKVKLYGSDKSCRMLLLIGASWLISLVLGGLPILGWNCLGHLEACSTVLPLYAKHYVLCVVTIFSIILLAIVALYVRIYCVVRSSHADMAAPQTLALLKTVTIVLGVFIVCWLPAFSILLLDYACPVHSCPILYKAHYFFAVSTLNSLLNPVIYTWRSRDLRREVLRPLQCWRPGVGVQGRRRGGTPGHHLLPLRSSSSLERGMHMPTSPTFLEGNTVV

CDK2 = biological target: T12, CDK2 (Homo sapiens, UniProt P24941); test: Off-target screen CDK2; format: biochemical; conditions: 10 µM; single point, duplicates
T12 construct: purchased Eurofins CEREP SA

Androgen receptor = biological target: T13, Androgen receptor (Homo sapiens, UniProt P10275); test: Off-target screen Androgen receptor; format: binding; conditions: 10 µM; single point, duplicates
T13 construct: purchased Eurofins CEREP SA

[2] = biological target: T14, Norepinephrine transporter (Homo sapiens, UniProt P23975); test: Off-target screen Norepinephrine transporter; format: binding; conditions: 10 µM; single point, duplicates
T14 construct: purchased Eurofins CEREP SA
T14 sequence (P23975 whole entry): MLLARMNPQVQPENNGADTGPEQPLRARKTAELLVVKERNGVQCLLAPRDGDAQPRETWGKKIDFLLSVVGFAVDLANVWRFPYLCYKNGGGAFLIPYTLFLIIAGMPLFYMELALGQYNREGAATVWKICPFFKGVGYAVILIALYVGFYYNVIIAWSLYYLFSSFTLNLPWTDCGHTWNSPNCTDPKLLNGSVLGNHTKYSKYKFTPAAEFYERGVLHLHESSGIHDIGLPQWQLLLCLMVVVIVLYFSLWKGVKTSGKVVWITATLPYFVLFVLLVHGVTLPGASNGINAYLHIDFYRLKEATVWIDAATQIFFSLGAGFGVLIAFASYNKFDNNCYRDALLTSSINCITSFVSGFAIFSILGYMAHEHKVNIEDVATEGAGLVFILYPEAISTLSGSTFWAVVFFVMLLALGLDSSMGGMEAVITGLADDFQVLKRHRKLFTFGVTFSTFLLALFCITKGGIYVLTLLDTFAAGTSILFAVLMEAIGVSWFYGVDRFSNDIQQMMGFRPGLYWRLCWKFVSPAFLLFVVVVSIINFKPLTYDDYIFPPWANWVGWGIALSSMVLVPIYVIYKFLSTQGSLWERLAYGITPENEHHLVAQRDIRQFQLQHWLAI

Serotonin transporter = biological target: T15, Serotonin transporter (Homo sapiens, UniProt P31645); test: Off-target screen Serotonin transporter; format: binding; conditions: 10 µM; single point, duplicates
T15 construct: purchased Eurofins CEREP SA
T15 sequence (P31645 whole entry): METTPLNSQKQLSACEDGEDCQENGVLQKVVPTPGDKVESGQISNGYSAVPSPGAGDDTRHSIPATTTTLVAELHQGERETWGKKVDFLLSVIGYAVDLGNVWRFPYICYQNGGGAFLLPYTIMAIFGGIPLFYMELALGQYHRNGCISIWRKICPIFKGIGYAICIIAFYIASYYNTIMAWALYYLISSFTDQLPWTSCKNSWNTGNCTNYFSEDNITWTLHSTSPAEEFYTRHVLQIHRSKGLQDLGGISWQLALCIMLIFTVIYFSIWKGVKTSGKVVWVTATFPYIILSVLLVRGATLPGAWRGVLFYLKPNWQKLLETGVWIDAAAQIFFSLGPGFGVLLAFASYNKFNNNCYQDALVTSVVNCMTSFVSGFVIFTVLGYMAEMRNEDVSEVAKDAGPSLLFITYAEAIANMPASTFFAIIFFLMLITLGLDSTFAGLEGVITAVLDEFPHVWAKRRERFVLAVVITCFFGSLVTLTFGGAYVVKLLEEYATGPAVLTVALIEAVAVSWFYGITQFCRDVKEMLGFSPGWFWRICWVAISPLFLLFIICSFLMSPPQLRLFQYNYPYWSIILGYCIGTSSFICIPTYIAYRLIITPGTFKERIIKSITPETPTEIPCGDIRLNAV

[3] = Artificial membrane permeability assay; format: in vitro ADME; conditions: PAMPA, read-out: Permeability Pe
Procedure: The assay was performed in an automated fashion on 96-well microplates. The permeation of drugs was measured using a “sandwich” construction: A filter-plate was coated with phospholipids (membrane) and placed into a donor compartment containing a compound/buffer solution. Finally, the top of filter-plate was filled with buffer solution (acceptor). Donor concentration was measured at t-start (reference) and compared with the donor and acceptor concentration after a certain time (t-end) to calculate the extent of passage of the compound through the membrane. The main readout of the assay was the permeability value Pe expressed in 10^–6 * cm/s. Secondary readouts determined were the amount of compound in the donor and acceptor compartments as well as the retention in the membrane. Depending on the permeation rate and the membrane retention the compounds were classified as low (Pe < 0.2 and membrane < 20%) or medium and high (Pe ≥ 0.2 or Pe < 0.2 and membrane ≥ 20%). Each sample was measured in triplicate and a standard deviation was determined for the permeation constant Pe.

Alpha2A-adrenoreceptor = biological target: T16, Alpha2A-adrenoreceptor (Homo sapiens, UniProt P08913); test: Off-target screen Alpha2A-adrenoreceptor; format: binding; conditions: 10 µM; single point, duplicates
T16 construct: purchased Eurofins CEREP SA

Adenosine A1 respetor = biological target: T17, Adenosine A1 respetor (Homo sapiens, UniProt P30542); test: Off-target screen Adenosine A1; format: binding; conditions: 10 µM; single point, duplicates
T17 construct: purchased Eurofins CEREP SA
T17 sequence (P30542 whole entry): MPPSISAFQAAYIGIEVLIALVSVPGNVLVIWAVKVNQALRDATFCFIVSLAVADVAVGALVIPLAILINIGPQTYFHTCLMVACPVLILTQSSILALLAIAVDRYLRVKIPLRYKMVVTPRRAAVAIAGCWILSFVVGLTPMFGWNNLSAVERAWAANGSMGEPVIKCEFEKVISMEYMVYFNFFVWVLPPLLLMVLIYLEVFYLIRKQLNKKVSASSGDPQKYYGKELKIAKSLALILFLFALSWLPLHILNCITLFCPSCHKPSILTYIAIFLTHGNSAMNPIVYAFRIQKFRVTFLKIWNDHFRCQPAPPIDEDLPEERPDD

Adenosine A3 respetor = biological target: T18, Adenosine A3 respetor (Homo sapiens, UniProt P0DMS8); test: Off-target screen Adenosine A3; format: binding; conditions: 10 µM; single point, duplicates
T18 construct: purchased Eurofins CEREP SA
T18 sequence (P0DMS8 whole entry): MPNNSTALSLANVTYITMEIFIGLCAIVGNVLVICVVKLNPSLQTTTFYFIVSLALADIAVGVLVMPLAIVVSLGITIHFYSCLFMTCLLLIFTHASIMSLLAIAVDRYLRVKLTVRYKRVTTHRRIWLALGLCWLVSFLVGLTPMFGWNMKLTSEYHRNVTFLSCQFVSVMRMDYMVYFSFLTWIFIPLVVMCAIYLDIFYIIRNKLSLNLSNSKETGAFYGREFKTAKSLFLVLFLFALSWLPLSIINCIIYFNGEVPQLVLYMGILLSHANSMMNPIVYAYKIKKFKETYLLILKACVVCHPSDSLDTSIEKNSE

MAO-B = biological target: T19, MAO-B (Homo sapiens, UniProt P27338); test: Off-target screen MAO-B; format: biochemical; conditions: 10 µM; single point, duplicates
T19 construct: purchased Eurofins CEREP SA

[4] = system: Ca2^+ channel (diltiazem site); test: Off-target screen Ca2+ channel (diltiazem site); conditions: 10 µM; single point, duplicates
PPARγ = biological target: T20, PPARγ (Homo sapiens, UniProt P37231); test: Off-target screen PPARγ, agonist mode; format: cell-based; conditions: 10 µM, single point, duplicates
T20 construct: purchased Eurofins CEREP SA

[5] = biological target: Glycine receptor (strychnine insensitive) (Rattus norvegicus, UniProt P35439); test: Off-target screen Glycine receptor (strychnine insensitive); format: binding; conditions: 10 µM; single point, duplicates
HDAC11 = biological target: T21, HDAC11 (Homo sapiens, UniProt Q96DB2); test: Off-target screen HDAC11; format: biochemical; conditions: 10 µM; single point, duplicates
T21 construct: purchased Eurofins CEREP SA
T21 sequence (Q96DB2 whole entry): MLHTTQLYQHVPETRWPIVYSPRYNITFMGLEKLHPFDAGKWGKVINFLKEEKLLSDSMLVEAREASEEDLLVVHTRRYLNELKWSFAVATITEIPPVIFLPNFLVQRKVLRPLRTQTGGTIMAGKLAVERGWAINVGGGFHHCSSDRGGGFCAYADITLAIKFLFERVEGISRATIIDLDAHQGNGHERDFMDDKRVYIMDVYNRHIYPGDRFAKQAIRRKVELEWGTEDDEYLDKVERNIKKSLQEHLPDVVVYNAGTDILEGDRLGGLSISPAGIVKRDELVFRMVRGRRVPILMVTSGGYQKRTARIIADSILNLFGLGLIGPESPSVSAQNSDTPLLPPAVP

kappa opioid receptor = biological target: T22, kappa opioid receptor (Rattus norvegicus, UniProt P34975); test: Off-target screen kappa opioid receptor; format: binding; conditions: 10 µM; single point, duplicates
T22 construct: purchased Eurofins CEREP SA
T22 sequence (P34975 whole entry): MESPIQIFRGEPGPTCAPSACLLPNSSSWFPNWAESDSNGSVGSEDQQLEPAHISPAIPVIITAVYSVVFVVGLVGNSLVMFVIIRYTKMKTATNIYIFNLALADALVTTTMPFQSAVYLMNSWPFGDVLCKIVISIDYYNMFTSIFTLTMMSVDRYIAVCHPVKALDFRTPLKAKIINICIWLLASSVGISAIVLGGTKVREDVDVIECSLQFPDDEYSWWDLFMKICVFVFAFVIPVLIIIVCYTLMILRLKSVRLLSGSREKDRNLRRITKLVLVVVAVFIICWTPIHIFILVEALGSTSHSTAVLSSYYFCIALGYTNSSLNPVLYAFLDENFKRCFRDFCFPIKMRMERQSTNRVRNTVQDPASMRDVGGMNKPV

MMP-9 = biological target: T23, MMP-9 (Homo sapiens, UniProt P14780); test: Off-target screen MMP-9; format: biochemical; conditions: 10 µM; single point, duplicates
T23 construct: purchased Eurofins CEREP SA

Histamine H3 receptor = biological target: T24, Histamine H3 receptor (Homo sapiens, UniProt Q9Y5N1); test: Off-target screen Histamine H3; format: binding; conditions: 10 µM; single point, duplicates
T24 construct: purchased Eurofins CEREP SA

S1P2 [6] = biological target: T11, S1P2; test: Off-target screen S1P2, agonist mode; format: cell-based; conditions: 10 µM, single point, duplicates
Dopamine D2 receptor = biological target: T25, Dopamine D2 receptor (Homo sapiens, UniProt P14416); test: Off-target screen Dopamine D2; format: binding; conditions: 10 µM; single point, duplicates
T25 construct: purchased Eurofins CEREP SA

Dopamine D1 receptor = biological target: T26, Dopamine D1 receptor (Homo sapiens, UniProt P21728); test: Off-target screen Dopamine D1; format: binding; conditions: 10 µM; single point, duplicates
T26 construct: purchased Eurofins CEREP SA
T26 sequence (P21728 whole entry): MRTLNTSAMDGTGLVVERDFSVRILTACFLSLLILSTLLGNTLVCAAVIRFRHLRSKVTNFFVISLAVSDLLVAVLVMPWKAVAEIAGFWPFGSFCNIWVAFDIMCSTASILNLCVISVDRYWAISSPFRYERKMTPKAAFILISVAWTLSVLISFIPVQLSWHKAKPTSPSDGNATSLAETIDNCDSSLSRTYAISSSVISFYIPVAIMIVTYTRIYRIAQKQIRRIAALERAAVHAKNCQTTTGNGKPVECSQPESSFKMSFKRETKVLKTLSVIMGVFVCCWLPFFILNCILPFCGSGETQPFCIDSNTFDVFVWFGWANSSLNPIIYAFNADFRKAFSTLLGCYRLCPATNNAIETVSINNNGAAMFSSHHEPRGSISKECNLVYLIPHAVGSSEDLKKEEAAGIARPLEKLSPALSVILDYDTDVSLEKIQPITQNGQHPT

Acetylcholinesterase = biological target: T27, Acetylcholinesterase (Homo sapiens, UniProt P22303); test: Off-target screen Acetylcholinesterase; format: biochemical; conditions: 10 µM; single point, duplicates
T27 construct: purchased Eurofins CEREP SA

## O=C(OCc1ccc(OC(F)(F)F)cc1)N1C[C@@H]2CN(C(=O)c3ccc4[nH]nnc4c3)C[C@H]2C1 [Compound 13, (3aS,6aS)-5-(1H-Benzotriazole-5-carbonyl)-hexahydro-pyrrolo[3,4-c]pyrrole-2-carboxylic acid 4-trifluoromethoxy-benzyl ester]
Glucocorticoid receptor
  Glucocorticoid receptor (h) [% inhib]: 6 % inhib
ACE
  ACE (h) [% inhib]: -25 % inhib
MAO-A
  MAO-A (h) [% inhib]: -1 % inhib
PCP receptor
  PCP receptor (r) [% inhib]: -16 % inhib
HT-solubility assay
  solubility: 28 µg/mL (≈ 58.9 µM)
Somatostatin receptor 4
  Somatostatin receptor 4 (h) [% inhib]: 12 % inhib
S1P3
  S1P3 (h), antago. mode [% inhib]: 47 % inhib
HDAC4
  HDAC4 (h) [% inhib]: 3 % inhib
ZAP70
  ZAP70 (h) [% inhib]: 9 % inhib
ADAM 17
  ADAM 17 (h) [% inhib]: 9 % inhib
Sodium channel (site 2)
  Sodium channel (site 2) (r) [% inhib]: 49 % inhib
LPA3 receptor
  LPA3 receptor (h), antago. mode [% inhib]: 56 % inhib
Cyclooxygenase 2
  Cyclooxygenase 2 (h) [% inhib]: 1 % inhib
S1P2 [1]
  S1P2 (h), antago. mode [% inhib]: 45 % inhib
CDK2
  CDK2 (h) [% inhib]: 0 % inhib
Androgen receptor
  Androgen receptor (h) [% inhib]: -1 % inhib
[2]
  Norepinephrine transporter (h) [% inhib]: 20 % inhib
Serotonin transporter
  Serotonin transporter (h) [% inhib]: 28 % inhib
[3]
  Papp: 4.5 ×10⁻⁶ cm/s
Alpha2A-adrenoreceptor
  Alpha2A-adrenoreceptor (h) [% inhib]: 3 % inhib
Adenosine A1 respetor
  Adenosine A1 respetor (h) [% inhib]: 1 % inhib
Adenosine A3 respetor
  Adenosine A3 respetor (h) [% inhib]: 33 % inhib
MAO-B
  MAO-B (h) [% inhib]: 6 % inhib
[4]
  Ca2^+ channel (diltiazem site) (r) [% inhib]: 9 % inhib
PPARγ
  PPARγ (h), agonist mode [% pos ctrl]: 0 % pos ctrl
[5]
  Glycine receptor (strychnine insensitive) (r) [% inhib]: 17 % inhib
HDAC11
  HDAC11 (h) [% inhib]: 0 % inhib
Kappa opioid receptor
  kappa opioid receptor (r) [% inhib]: -1 % inhib
MMP-9
  MMP-9 (h) [% inhib]: -22 % inhib
Histamine H3 receptor
  Histamine H3 receptor (h) [% inhib]: -10 % inhib
S1P2 [6]
  S1P2 (h), agonist mode [% pos ctrl]: -2 % pos ctrl
Dopamine D2 receptor
  Dopamine D2 receptor (h) [% inhib]: 4 % inhib
Dopamine D1 receptor
  Dopamine D1 receptor (h) [% inhib]: 0 % inhib
Acetylcholinesterase
  Acetylcholinesterase (h) [% inhib]: -23 % inhib
